System: erythrocytic cells
Experiment: Hemolysis / survival of freeze-dried and rehydrated erythrocytic cells

Row | Molecule | hemolysis after freeze-drying and rehydration (FIG. 22 [T+αC]+5 min+Zn: α-crystallin 1.2 mg/ml loading, 5 min pre-hydration, 500 μM ZnSO4 in rehydration buffer) [%] | cell survival (α-crystallin, 5 min pre-hydration and 500 μM ZnSO4 combined) [%] | cell survival after rehydration (1.2 mg/ml α-crystallin in loading plus 0.5 mg/ml α-crystallin in rehydration buffer) | hemolysis after freeze-drying and rehydration (FIG. 22 [T+αC]+5 min: α-crystallin 1.2 mg/ml in loading buffer, pre-hydrated 37° C. 5 min) [%] | percent hemolysis after freeze-drying and direct rehydration (loaded in 800 mM trehalose, 100 mOsm ADSOL, 6.6 mM Na-phosphate and 1.2 mg/ml α-crystallin (FIG. 21)) [%]
1 | O=S(=O)([O-])[O-].[Zn+2] [ZnSO4] | 38 | 62 | – | – | –
2 | α-crystallin: member of the small heat shock protein family | – | – | does not result in higher cell survival | 47 | 49

Source: US20050031597A1, “Cells and improved method for preserving cells” (priority 2003, published 2005)
